Measured values reported in PubChem BioAssay (NCI).
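Cells were grown in 96-well plates and exposed to each compound for 48 hours at five concentrations; endpoints were interpolated linearly between bracketing concentrations, or set to the highest concentration if not reached. The concentration for 50% growth inhibition is given as GI50. TGI: total growth inhibition.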

What was measured:
Test in all cases: DTP human tumour cell line panel, 48 h; in the data active = GI50 below about 0.43 µM; inactive = the rest
SNB-78 CNS = system: SNB-78 CNS
IGROV1 ovarian = system: IGROV1 ovarian
HCC-2998 colon = system: HCC-2998 colon
SK-MEL-2 melanoma = system: SK-MEL-2 melanoma
DLD-1 colon = system: DLD-1 colon
HL-60(TB) leukemia = system: HL-60(TB) leukemia
OVCAR-4 ovarian = system: OVCAR-4 ovarian
SF-268 CNS = system: SF-268 CNS
MALME-3M melanoma = system: MALME-3M melanoma
SK-OV-3 ovarian = system: SK-OV-3 ovarian
NCI-H522 lung = system: NCI-H522 lung
HOP-92 NSCLC = system: HOP-92 NSCLC
K-562 leukemia = system: K-562 leukemia
COLO 205 colon = system: COLO 205 colon
UACC-62 melanoma = system: UACC-62 melanoma
786-0 renal = system: 786-0 renal
ACHN renal = system: ACHN renal
MOLT-4 leukemia = system: MOLT-4 leukemia
LXFL 529 NSCLC = system: LXFL 529 NSCLC
M19-MEL melanoma = system: M19-MEL melanoma
DMS 114 small cell lung = system: DMS 114 small cell lung
SNB-75 CNS = system: SNB-75 CNS
RPMI-8226 leukemia = system: RPMI-8226 leukemia
DMS 273 small cell lung = system: DMS 273 small cell lung
SR leukemia = system: SR leukemia
UO-31 renal = system: UO-31 renal
HCT-116 colon = system: HCT-116 colon
XF 498 CNS = system: XF 498 CNS
A498 renal = system: A498 renal
CAKI-1 renal = system: CAKI-1 renal
HOP-62 NSCLC = system: HOP-62 NSCLC
CCRF-CEM leukemia = system: CCRF-CEM leukemia
SK-MEL-28 melanoma = system: SK-MEL-28 melanoma
NCI-H226 lung = system: NCI-H226 lung
M14 melanoma = system: M14 melanoma
NCI-H23 lung = system: NCI-H23 lung
SF-539 CNS = system: SF-539 CNS
SN12C renal = system: SN12C renal
UACC-257 melanoma = system: UACC-257 melanoma
SW-620 colon = system: SW-620 colon
HT29 colon = system: HT29 colon
NCI-H460 lung = system: NCI-H460 lung
OVCAR-8 ovarian = system: OVCAR-8 ovarian
U251 CNS = system: U251 CNS
HCT-15 colon = system: HCT-15 colon
SF-295 CNS = system: SF-295 CNS
OVCAR-3 ovarian = system: OVCAR-3 ovarian
KM20L2 colon = system: KM20L2 colon
KM12 colon = system: KM12 colon
LOX IMVI melanoma = system: LOX IMVI melanoma
SK-MEL-5 melanoma = system: SK-MEL-5 melanoma
SNB-19 CNS = system: SNB-19 CNS
RXF 393 renal = system: RXF 393 renal
TK-10 renal = system: TK-10 renal
A549 NSCLC = system: A549 NSCLC
EKVX NSCLC = system: EKVX NSCLC
HOP-18 NSCLC = system: HOP-18 NSCLC
OVCAR-5 ovarian = system: OVCAR-5 ovarian

COc1ccc(/C=N/Nc2nc(C)c3c(n2)Nc2ccccc2NC3=O)cc1
> 100 µM: TGI (SNB-78 CNS) | TGI (IGROV1 ovarian) | TGI (HCC-2998 colon) | TGI (SK-MEL-2 melanoma) | TGI (DLD-1 colon) | TGI (HL-60(TB) leukemia) | TGI (OVCAR-4 ovarian) | TGI (SF-268 CNS) | TGI (MALME-3M melanoma) | TGI (SK-OV-3 ovarian) | TGI (NCI-H522 lung) | TGI (HOP-92 NSCLC) | TGI (K-562 leukemia) | TGI (COLO 205 colon) | TGI (UACC-62 melanoma) | TGI (786-0 renal) | TGI (ACHN renal) | TGI (MOLT-4 leukemia) | TGI (LXFL 529 NSCLC) | TGI (M19-MEL melanoma) | TGI (DMS 114 small cell lung) | TGI (SNB-75 CNS) | TGI (RPMI-8226 leukemia) | TGI (DMS 273 small cell lung) | TGI (SR leukemia) | TGI (UO-31 renal) | TGI (HCT-116 colon) | TGI (XF 498 CNS) | TGI (A498 renal) | TGI (CAKI-1 renal) | TGI (HOP-62 NSCLC) | TGI (CCRF-CEM leukemia) | TGI (SK-MEL-28 melanoma) | TGI (NCI-H226 lung) | TGI (M14 melanoma) | TGI (NCI-H23 lung) | TGI (SF-539 CNS) | TGI (SN12C renal)

C1C[OH+]CC[OH+]CC[OH+]CC[OH+]CC[OH+]CC[OH+]1.[Cl-].[Nb+5]
inactive: GI50 (IGROV1 ovarian) > 100 µM | GI50 (HCC-2998 colon) > 100 µM | GI50 (SK-MEL-2 melanoma) > 100 µM | GI50 (UACC-257 melanoma) > 100 µM | GI50 (SW-620 colon) > 100 µM | GI50 (HT29 colon) > 100 µM | GI50 (HL-60(TB) leukemia) > 100 µM | GI50 (NCI-H460 lung) > 100 µM | GI50 (OVCAR-4 ovarian) > 100 µM | GI50 (SF-268 CNS) > 100 µM | GI50 (MALME-3M melanoma) > 100 µM | GI50 (SK-OV-3 ovarian) > 100 µM | GI50 (NCI-H522 lung) > 100 µM | GI50 (OVCAR-8 ovarian) > 100 µM | GI50 (HOP-92 NSCLC) > 100 µM | GI50 (K-562 leukemia) > 100 µM | GI50 (COLO 205 colon) > 100 µM | GI50 (UACC-62 melanoma) > 100 µM | GI50 (786-0 renal) > 100 µM | GI50 (U251 CNS) > 100 µM | GI50 (ACHN renal) > 100 µM | GI50 (MOLT-4 leukemia) > 100 µM | GI50 (HCT-15 colon) > 100 µM | GI50 (SNB-75 CNS) 39.6 µM | GI50 (SF-295 CNS) > 100 µM | GI50 (RPMI-8226 leukemia) > 100 µM | GI50 (OVCAR-3 ovarian) > 100 µM | GI50 (KM20L2 colon) > 100 µM | GI50 (UO-31 renal) 68.6 µM | GI50 (KM12 colon) > 100 µM | GI50 (HCT-116 colon) > 100 µM | GI50 (A498 renal) > 100 µM | GI50 (LOX IMVI melanoma) > 100 µM | GI50 (SK-MEL-5 melanoma) > 100 µM | GI50 (CAKI-1 renal) > 100 µM | GI50 (HOP-62 NSCLC) > 100 µM | GI50 (SNB-19 CNS) > 100 µM | GI50 (RXF 393 renal) 85.3 µM | GI50 (SK-MEL-28 melanoma) > 100 µM | GI50 (NCI-H226 lung) > 100 µM | GI50 (TK-10 renal) > 100 µM | GI50 (M14 melanoma) > 100 µM | GI50 (NCI-H23 lung) > 100 µM | GI50 (SF-539 CNS) > 100 µM | GI50 (A549 NSCLC) > 100 µM | GI50 (SN12C renal) > 100 µM
> 100 µM: TGI (IGROV1 ovarian) | TGI (HCC-2998 colon) | TGI (SK-MEL-2 melanoma) | TGI (UACC-257 melanoma) | TGI (SW-620 colon) | TGI (HT29 colon) | TGI (HL-60(TB) leukemia) | TGI (NCI-H460 lung) | TGI (OVCAR-4 ovarian) | TGI (SF-268 CNS) | TGI (MALME-3M melanoma) | TGI (SK-OV-3 ovarian) | TGI (NCI-H522 lung) | TGI (OVCAR-8 ovarian) | TGI (HOP-92 NSCLC) | TGI (K-562 leukemia) | TGI (COLO 205 colon) | TGI (UACC-62 melanoma) | TGI (786-0 renal) | TGI (U251 CNS) | TGI (ACHN renal) | TGI (MOLT-4 leukemia) | TGI (HCT-15 colon) | TGI (SNB-75 CNS) | TGI (SF-295 CNS) | TGI (RPMI-8226 leukemia) | TGI (OVCAR-3 ovarian) | TGI (KM20L2 colon) | TGI (UO-31 renal) | TGI (KM12 colon) | TGI (HCT-116 colon) | TGI (A498 renal) | TGI (LOX IMVI melanoma) | TGI (SK-MEL-5 melanoma) | TGI (CAKI-1 renal) | TGI (HOP-62 NSCLC) | TGI (SNB-19 CNS) | TGI (RXF 393 renal) | TGI (SK-MEL-28 melanoma) | TGI (NCI-H226 lung) | TGI (TK-10 renal) | TGI (M14 melanoma) | TGI (NCI-H23 lung) | TGI (SF-539 CNS) | TGI (A549 NSCLC) | TGI (SN12C renal)

Nc1nc(N)c(-c2ccccc2)c(CCC(=O)Nc2ccc(Cl)cc2)n1
> 100 µM: TGI (SNB-78 CNS) | TGI (IGROV1 ovarian) | TGI (EKVX NSCLC) | TGI (HCC-2998 colon) | TGI (SK-MEL-2 melanoma) | TGI (UACC-257 melanoma) | TGI (HOP-18 NSCLC) | TGI (DLD-1 colon) | TGI (SW-620 colon) | TGI (HT29 colon) | TGI (HL-60(TB) leukemia) | TGI (NCI-H460 lung) | TGI (OVCAR-4 ovarian) | TGI (SF-268 CNS) | TGI (MALME-3M melanoma) | TGI (SK-OV-3 ovarian) | TGI (NCI-H522 lung) | TGI (OVCAR-8 ovarian) | TGI (HOP-92 NSCLC) | TGI (K-562 leukemia) | TGI (COLO 205 colon) | TGI (OVCAR-5 ovarian) | TGI (UACC-62 melanoma) | TGI (786-0 renal) | TGI (U251 CNS) | TGI (ACHN renal) | TGI (MOLT-4 leukemia) | TGI (LXFL 529 NSCLC) | TGI (M19-MEL melanoma) | TGI (HCT-15 colon) | TGI (SNB-75 CNS) | TGI (SF-295 CNS) | TGI (RPMI-8226 leukemia) | TGI (OVCAR-3 ovarian) | TGI (DMS 273 small cell lung) | TGI (KM20L2 colon) | TGI (SR leukemia) | TGI (UO-31 renal) | TGI (KM12 colon) | TGI (HCT-116 colon) | TGI (A498 renal) | TGI (SK-MEL-5 melanoma) | TGI (CAKI-1 renal) | TGI (HOP-62 NSCLC) | TGI (CCRF-CEM leukemia) | TGI (SNB-19 CNS) | TGI (SK-MEL-28 melanoma) | TGI (NCI-H226 lung) | TGI (TK-10 renal) | TGI (M14 melanoma) | TGI (NCI-H23 lung) | TGI (SF-539 CNS) | TGI (A549 NSCLC) | TGI (SN12C renal)
